Columns and labels:
CDK9/cyclinT1 complex = CDK9/cyclinT1 complex (Homo sapiens, UniProt P50750); experiment: In-vitro enzymatic inhibitory activity testing, CDK9 inhibition assay (Caliper EZ Reader II); assay type: biochemical; conditions: CDK9/cyclinT1 8 nM, 180 min at 27° C.
Summary of the method: (§1)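 Enzyme preincubated 10 min with compound, then peptide substrate plus ATP added in 80 mM MES pH 6.5, 10 mM MgCl2 buffer; 180 min at 27 °C, stopped with EDTA.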

[1] = target: T1, CDK12 (aa686-1082)/cyclinK complex (Homo sapiens, UniProt Q9NYV4); experiment: In-vitro enzymatic inhibitory activity testing, CDK12 inhibition assay (Caliper EZ Reader II); assay type: biochemical; conditions: CDK12/cyclinK 50 nM, 180 min at 27° C.; read-out: CDK12 IC50
T1 construct: A CDK12 (aa686-1082)/cyclinK complex (50 nM)
T1 sequence (Q9NYV4 686-1082, species assumed): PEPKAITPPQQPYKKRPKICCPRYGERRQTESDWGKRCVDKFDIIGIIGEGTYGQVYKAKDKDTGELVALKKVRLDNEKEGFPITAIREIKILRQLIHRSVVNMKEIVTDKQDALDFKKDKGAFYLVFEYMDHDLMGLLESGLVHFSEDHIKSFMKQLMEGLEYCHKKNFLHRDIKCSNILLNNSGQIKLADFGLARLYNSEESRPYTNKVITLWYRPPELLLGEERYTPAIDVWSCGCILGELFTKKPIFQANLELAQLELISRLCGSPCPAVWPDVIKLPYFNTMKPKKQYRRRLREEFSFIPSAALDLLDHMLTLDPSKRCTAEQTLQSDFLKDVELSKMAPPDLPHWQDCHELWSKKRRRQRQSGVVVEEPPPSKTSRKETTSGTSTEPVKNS
T1 sequence (O75909 whole entry partner, species assumed, the tested form may be a part): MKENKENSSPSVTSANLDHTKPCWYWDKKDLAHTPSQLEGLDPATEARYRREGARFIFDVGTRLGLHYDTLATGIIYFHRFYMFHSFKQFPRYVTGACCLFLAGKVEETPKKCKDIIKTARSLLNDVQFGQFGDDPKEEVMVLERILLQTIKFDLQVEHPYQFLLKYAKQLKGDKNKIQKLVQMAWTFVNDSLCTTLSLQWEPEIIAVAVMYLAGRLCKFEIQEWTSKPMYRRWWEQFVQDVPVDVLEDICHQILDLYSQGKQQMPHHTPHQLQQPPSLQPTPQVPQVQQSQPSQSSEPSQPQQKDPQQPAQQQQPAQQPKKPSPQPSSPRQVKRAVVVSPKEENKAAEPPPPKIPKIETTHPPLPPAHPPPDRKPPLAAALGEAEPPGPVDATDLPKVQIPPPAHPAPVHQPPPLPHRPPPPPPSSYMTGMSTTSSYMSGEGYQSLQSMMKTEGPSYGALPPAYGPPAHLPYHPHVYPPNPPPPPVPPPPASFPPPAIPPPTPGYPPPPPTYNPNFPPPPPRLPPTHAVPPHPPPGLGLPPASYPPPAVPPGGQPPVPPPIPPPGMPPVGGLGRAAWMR
Summary of the method: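 Caliper EZ Reader II mobility-shift separation of 5-FAM-CDK9tide substrate (2 μM) from phosphoproduct, using 50 nM CDK12 (aa686-1082)/cyclinK in 80 mM MES pH 6.5, 10 mM MgCl2, 0.01% Tween 20, 50 ug/mL BSA. Compound pre-incubated 10 min with enzyme, then substrate/ATP added for 180 min at 27° C; EDTA stop. IC50 by nonlinear dose-response regression.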

ovarian cancer A2780 = experiment: Cell biological activity detection (CyQuant, 72 hours), A2780; assay type: cell-based, human; conditions: Homo sapiens, A2780, 72 h, A2780 cells, incubation for 72 hours
Summary of the method: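 A2780 and HCC70 cells seeded at 2000/well in RPMI 1640 + 10% FBS, treated next day with 9-point compound dilutions (top 10 μM, 1:4; 0.2% DMSO) for 72 h at 37 °C. Cell number read by CyQuant Direct nucleic acid stain (ex 488 nm); IC50 from dose–response fit.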

[2] = target: CDK7/cyclinH/MAT1 complex (Homo sapiens, UniProt P50613); experiment: In-vitro enzymatic inhibitory activity testing, CDK7 inhibition assay (Caliper EZ Reader II); assay type: biochemical; conditions: CDK7/cyclinH/MAT1 6 nM, 180 min at 27° C.
CDK7/cyclinH/MAT1 complex, sequence (P50613 whole entry, species assumed): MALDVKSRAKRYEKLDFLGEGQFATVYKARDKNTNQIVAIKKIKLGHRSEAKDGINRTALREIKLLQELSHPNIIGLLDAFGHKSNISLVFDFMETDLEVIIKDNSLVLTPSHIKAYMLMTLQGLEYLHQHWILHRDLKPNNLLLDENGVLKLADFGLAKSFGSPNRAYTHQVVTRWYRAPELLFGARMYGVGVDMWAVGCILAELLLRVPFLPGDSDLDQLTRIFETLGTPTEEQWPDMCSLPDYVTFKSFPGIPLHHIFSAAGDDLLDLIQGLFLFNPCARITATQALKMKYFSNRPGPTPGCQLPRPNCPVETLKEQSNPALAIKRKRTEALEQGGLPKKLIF
CDK7/cyclinH/MAT1 complex, sequence (P51946 whole entry partner, species assumed): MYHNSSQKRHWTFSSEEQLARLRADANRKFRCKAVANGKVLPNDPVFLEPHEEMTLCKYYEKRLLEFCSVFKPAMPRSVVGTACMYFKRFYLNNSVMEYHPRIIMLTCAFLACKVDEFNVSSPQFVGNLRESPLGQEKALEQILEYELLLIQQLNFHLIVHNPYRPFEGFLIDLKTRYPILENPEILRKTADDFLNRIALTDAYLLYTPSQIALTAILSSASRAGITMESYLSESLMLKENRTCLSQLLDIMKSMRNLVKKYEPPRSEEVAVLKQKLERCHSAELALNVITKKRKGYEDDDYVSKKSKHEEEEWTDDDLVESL
CDK7/cyclinH/MAT1 complex, sequence (P51948 whole entry partner, species assumed): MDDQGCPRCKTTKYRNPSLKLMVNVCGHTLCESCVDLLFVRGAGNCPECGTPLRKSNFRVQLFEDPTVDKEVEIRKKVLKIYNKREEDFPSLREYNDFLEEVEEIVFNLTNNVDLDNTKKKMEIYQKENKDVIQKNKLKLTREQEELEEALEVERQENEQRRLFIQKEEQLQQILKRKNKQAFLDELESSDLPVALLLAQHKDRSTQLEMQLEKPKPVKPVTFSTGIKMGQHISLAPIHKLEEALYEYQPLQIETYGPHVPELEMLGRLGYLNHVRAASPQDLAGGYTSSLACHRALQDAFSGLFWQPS
Summary of the method: as §1

CDK9/cyclinT1 complex, sequence (P50750 whole entry, species assumed): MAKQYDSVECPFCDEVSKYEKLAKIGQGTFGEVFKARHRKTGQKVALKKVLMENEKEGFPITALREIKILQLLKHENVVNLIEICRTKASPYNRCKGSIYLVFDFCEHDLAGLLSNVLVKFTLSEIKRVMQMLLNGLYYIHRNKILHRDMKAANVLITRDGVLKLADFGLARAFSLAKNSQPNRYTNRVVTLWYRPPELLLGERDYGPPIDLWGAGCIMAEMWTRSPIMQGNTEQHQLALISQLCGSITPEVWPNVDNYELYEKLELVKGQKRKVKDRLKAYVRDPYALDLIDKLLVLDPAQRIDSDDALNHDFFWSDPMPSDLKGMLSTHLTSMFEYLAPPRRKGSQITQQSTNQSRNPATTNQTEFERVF
CDK9/cyclinT1 complex, sequence (O60563 whole entry partner, species assumed): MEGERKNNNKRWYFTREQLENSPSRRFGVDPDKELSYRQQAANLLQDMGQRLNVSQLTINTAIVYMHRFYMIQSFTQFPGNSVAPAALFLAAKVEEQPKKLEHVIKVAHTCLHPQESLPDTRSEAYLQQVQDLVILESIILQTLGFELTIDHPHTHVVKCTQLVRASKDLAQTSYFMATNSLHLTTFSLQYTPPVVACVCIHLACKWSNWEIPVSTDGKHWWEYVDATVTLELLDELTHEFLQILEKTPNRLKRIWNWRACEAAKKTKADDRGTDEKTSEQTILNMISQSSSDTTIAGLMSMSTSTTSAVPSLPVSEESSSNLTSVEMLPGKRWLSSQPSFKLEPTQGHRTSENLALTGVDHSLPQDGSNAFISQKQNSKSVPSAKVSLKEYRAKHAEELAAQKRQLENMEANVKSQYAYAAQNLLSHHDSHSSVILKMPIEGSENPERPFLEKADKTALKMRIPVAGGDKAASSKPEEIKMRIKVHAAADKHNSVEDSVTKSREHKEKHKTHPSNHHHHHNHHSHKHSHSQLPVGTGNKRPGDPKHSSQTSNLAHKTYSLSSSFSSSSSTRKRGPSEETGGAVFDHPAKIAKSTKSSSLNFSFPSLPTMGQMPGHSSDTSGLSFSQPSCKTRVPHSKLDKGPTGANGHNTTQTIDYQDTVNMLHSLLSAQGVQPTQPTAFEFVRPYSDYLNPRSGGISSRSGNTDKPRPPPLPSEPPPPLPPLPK

IC50 (CDK9/cyclinT1 complex) [nM]	IC50 [1] [nM]	IC50 (ovarian cancer A2780) [nM]	IC50 [2] [nM]	Compound
> 50000	> 50000	< 20	< 20	CP(C)(=O)c1cccc2c(-c3nc(NCCCO)ncc3C(F)(F)F)c[nH]c12 [Compound 89, (3-(2-((3-hydroxypropyl)amino)-5-(trifluoromethyl)pyrimidin-4-yl)-1H-indole-7-yl)dimethylphosphine oxide]
> 50000	5000 to 50000	< 20	< 20	C[C@H](CO)Nc1ncc(C(F)(F)F)c(-c2c[nH]c3c(P(C)(C)=O)cccc23)n1 [Compound 93, (R)-(3-(2-((1-hydroxypropyl-2-yl)amino)-5-(trifluoromethyl)pyrimidin-4-yl)-1H-indole-7-yl)dimethylphosphine oxide]
> 50000	> 50000	< 20	< 20	CP(C)(=O)c1cccc2c(-c3nc(NCCO)ncc3C(F)(F)F)c[nH]c12 [Compound 97, (3-(2-((2-hydroxyethyl)amino)-5-(trifluoromethyl)pyrimidin-4-yl)-1H-indole-7-yl)dimethylphosphine oxide]
> 50000	> 50000	< 20	< 20	CP(C)(=O)c1cccc2c(-c3nc(NCC(F)(F)CO)ncc3C(F)(F)F)c[nH]c12 [Compound 102, (3-(2-((2,2-difluoro-3-hydroxypropyl)amino)-5-(trifluoromethyl)pyrimidin-4-yl)-1H-indole-7-yl)dimethylphosphine oxide]
> 50000	> 50000	20 to 200	< 20	CP(C)(=O)c1cccc2c(-c3nc(NCC4CC(O)C4)ncc3C(F)(F)F)c[nH]c12 (stereo not drawn) [Compound 126, (3-(2-(((3-hydroxycyclobutyl)methyl)amino)-5-(trifluoromethyl)pyrimidin-4-yl)-1H-indole-7-yl)dimethylphosphine oxide]
> 50000	> 50000	< 20	< 20	CP(C)(=O)c1cccc2c(-c3nc(NC[C@H]4C[C@](C)(O)C4)ncc3C(F)(F)F)c[nH]c12 [Compound 127, (3-(2-(((trans-3-hydroxy-3-methylcyclobutyl)methyl)amino)-5-(trifluoromethyl)pyrimidin-4-yl)-1H-indole-7-yl)dimethylphosphine oxide]
5000 to 50000	200 to 5000	< 20	< 20	CN(C)[C@H]1CC[C@H](Nc2ncc(C(F)(F)F)c(-c3c[nH]c4c(P(C)(C)=O)cccc34)n2)C1 [Compound 137, (3-(2-(((1S,3S)-3-(dimethylamino)cyclopentyl)amino)-5-(trifluoromethyl)pyrimidin-4-yl)-1H-indole-7-yl)dimethylphosphine oxide]
5000 to 50000	5000 to 50000	20 to 200	20 to 200	CP(C)(=O)c1cccc2c(-c3nc(N[C@@H]4CCC[C@H]4O)ncc3C(F)(F)F)c[nH]c12 [Compound 156]
> 50000	> 50000	20 to 200	< 20	CP(C)(=O)c1cccc2c(-c3nc(NC4(CO)CCC4)ncc3C(F)(F)F)c[nH]c12 [Compound 168, (3-(2-((1-(hydroxymethyl)cyclobutyl)amino)-5-(trifluoromethyl)pyrimidin-4-yl)-1H-indole-7-yl)dimethylphosphine oxide]
> 50000	5000 to 50000	< 20	< 20	C[C@@H](CO)Nc1ncc(C(F)(F)F)c(-c2c[nH]c3c(P(C)(C)=O)c(F)ccc23)n1 [Compound 195]

Second part, the compound before the results:

Compound	IC50 (CDK9/cyclinT1 complex) [nM]	IC50 [1] [nM]	IC50 (ovarian cancer A2780) [nM]	IC50 [2] [nM]
CP(C)(=O)c1cccc2c(-c3nc(NC[C@H](F)CO)ncc3C(F)(F)F)c[nH]c12 [Compound 86, (S)-(3-(2-((2-fluoro-3-hydroxypropyl)amino)-5-(trifluoromethyl)pyrimidin-4-yl)-1H-indole-7-yl)dimethylphosphine oxide]	> 50000	> 50000	< 20	< 20
CP(C)(=O)c1cccc2c(-c3nc(N[C@H]4COC[C@@H]4O)ncc3C(F)(F)F)c[nH]c12 [Compound 87]	> 50000	> 50000	< 20	< 20
CC[C@@H](CO)Nc1ncc(C(F)(F)F)c(-c2c[nH]c3c(P(C)(C)=O)cccc23)n1 [Compound 88, (S)-(3-(2-((1-hydroxybutan-2-yl)amino)-5-(trifluoromethyl)pyrimidin-4-yl)-1H-indole-7-yl)dimethylphosphine oxide]	> 50000	> 50000	< 20	< 20
CP(C)(=O)c1cccc2c(-c3nc(NC4(CO)CC4)ncc3C(F)(F)F)c[nH]c12 [Compound 94, (3-(2-((1-(hydroxymethyl)cyclopropyl)amino)-5-(trifluoromethyl)pyrimidin-4-yl)-1H-indole-7-yl)dimethylphosphine oxide]	> 50000	> 50000	< 20	20 to 200
CP(C)(=O)c1cccc2c(-c3nc(NC4(CO)CC(F)(F)C4)ncc3C(F)(F)F)c[nH]c12 [Compound 96, (3-(2-((3,3-difluoro-1-(hydroxymethyl)cyclobutyl)amino)-5-(trifluoromethyl)pyrimidin-4-yl)-1H-indole-7-yl)dimethylphosphine oxide]	> 50000	> 50000	< 20	20 to 200
C[C@@H](CO)Nc1ncc(Cl)c(-c2c[nH]c3c(P(C)(C)=O)cccc23)n1 [Compound 103, (S)-(3-(5-chloro-2-((1-hydroxypropan-2-yl)amino)pyrimidin-4-yl)-1H-indole-7-yl)dimethylphosphine oxide]	> 50000	> 50000	20 to 200	20 to 200
CP(C)(=O)c1cccc2c(-c3nc(NC4(CO)CC(F)C4)ncc3C(F)(F)F)c[nH]c12 (stereo not drawn) [Compound 105, (3-(2-((3-fluoro-1-(hydroxymethyl)cyclobutyl)amino)-5-(trifluoromethyl)pyrimidin-4-yl)-1H-indole-7-yl)dimethylphosphine oxide]	> 50000	> 50000	20 to 200	20 to 200
CP(C)(=O)c1cccc2c(-c3nc(NC4(CO)COC4)ncc3C(F)(F)F)c[nH]c12 [Compound 114, (3-(2-((3-(hydroxymethyl)oxetan-3-yl)amino)-5-(trifluoromethyl)pyrimidin-4-yl)-1H-indole-7-yl)dimethylphosphine oxide]	> 50000	> 50000	< 20	< 20
CP(C)(=O)c1cccc2c(-c3nc(N[C@@H]4CC[C@H]4O)ncc3C(F)(F)F)c[nH]c12 [Compound 153, (3-(2-(((1R,2R)-2-hydroxycyclobutyl)amino)-5-(trifluoromethyl)pyrimidin-4-yl)-1hydro-indole-7-yl)dimethylphosphine oxide]	> 50000	> 50000	20 to 200	< 20
CP(C)(=O)c1cccc2c(-c3nc(N[C@H]4CC[C@@H]4O)ncc3C(F)(F)F)c[nH]c12 [Compound 154, (3-(2-(((1S,2S)-2-hydroxycyclobutyl)amino)-5-(trifluoromethyl)pyrimidin-4-yl)-1hydro-indole-7-yl)dimethylphosphine oxide]	5000 to 50000	5000 to 50000	< 20	< 20
CP(C)(=O)c1cccc2c(-c3nc(N[C@H]4CCC[C@@H]4O)ncc3C(F)(F)F)c[nH]c12 [Compound 155, (3-(2-(((1S,2S)-2-hydroxycyclopentyl)amino)-5-(trifluoromethyl)pyrimidin-4-yl)-1hydro-indole-7-yl)dimethylphosphine oxide]	5000 to 50000	5000 to 50000	< 20	< 20
C[C@@H](CO)Nc1ncc(C(F)(F)F)c(-c2c[nH]c3c(P(C)(C)=O)cc(F)cc23)n1 [Compound 158]	> 50000	> 50000	< 20	< 20
CP(C)(=O)c1cccc2c(-c3nc(NC45CC(O)(C4)C5)ncc3C(F)(F)F)c[nH]c12 [Compound 174, (3-(2-((3-hydroxybicyclo[1.1.1]pentan-1-yl)amino)-5-(trifluoromethyl)pyrimidin-4-yl)-1H-indole-7-yl)dimethylphosphine oxide]	5000 to 50000	200 to 5000	< 20	< 20
C[C@@H](CO)Nc1ncc(C#N)c(-c2c[nH]c3c(P(C)(C)=O)cccc23)n1 [Compound 179, (S)-4-(7-(dimethylphosphoryl)-1H-indole-3-yl)-2-((1-hydroxypropan-2-yl)amino)pyrimidine-5-carbonitrile]	> 50000	5000 to 50000	20 to 200	< 20

Reference: patent US20240124504A1, “AROMATIC HETEROCYCLIC COMPOUND, AND PHARMACEUTICAL COMPOSITION AND APPLICATION THEREOF” (GT APEIRON THERAPEUTICS LIMITED, priority 2020, published 2024)
